According to patent US11426403B2 (ST IP Holding AG, priority 2016, dated 2022):
Where two headings read alike, the source gives them in different places.

What was measured:
[1] = tested on: oral mucositis induced by acute radiation, left buccal cheek pouch
Protocol: Twenty-four (24) male Syrian Golden Hamsters were used in the study. Mucositis was induced by giving an acute radiation dose of 40 Gy directed to the left buccal cheek pouch on Day 0. Mucositis was evaluated clinically starting on Day 6, and continuing on alternate days until Day 28.
Mucositis was scored visually by comparison to a validated photographic scale, ranging from 0 for normal, to 5 for severe ulceration (clinical scoring). In descriptive terms, this scale is defined as described in Table 7 below: […]
A mucositis score of 3 or greater indicates ulcerative mucositis, a clinically significant threshold.
Statistical significance of observed differences was calculated using chi-squared analysis.
An analysis of the severity of mucositis was performed using the Mann-Whitney rank sum analysis to compare the visual mucositis scores for Groups 2 and 3 to the vehicle control group (Group 1) on each day of the analysis. In this analysis, 2 consecutive days of significant reduction in the mucositis score are generally required before it is regarded as clinically meaningful.
The significance of group differences observed in daily mucositis scores was determined using the Mann-Whitney rank sum test. This nonparametric statistic is appropriate for the visual mucositis scoring scale. The p-values for each calculation are shown. “x” denotes significant difference in mucositis scores. “y” denotes increase in comparison to vehicle Group […], “z” denotes decrease.
“y” denotes an increase in comparison to vehicle Group, “z” denotes decrease (improvement).

[2] = hamster, Days -3 to 28, topical 1 mg/dose BID
[3] = tested on: primary human gingival epithelial cells (HGEPp); conditions: pretreated 24 h at 50 to 800 ug/ml, then 0.3 mM H2O2 for 4 h; P<0.05 versus PC
Protocol: (§1) Pooled primary HGEPps were propagated in CnT-Prime epithelial culture medium provided by CellnTec on 100 mm petri dishes coated with 30 mg/ml Type I rat tail collagen (BD Biosciences) diluted in Dulbecco's phosphate-buffered saline (DPBS). […] The cells were harvested when they reached 70-90% confluency as observed by light microscopy. For routine cultivation, the medium was changed every 3 days. For both the cell viability and ROS assays, the cells from passages 3-7 were seeded at 5×10 3, 2.5×10 4, 5×10^4 cells/cm 2 density to grow cell monolayers in 24-well flat-bottomed tissue culture plates and acclimated overnight at 37° C. […]
(§2) Once the HGEPp cells were cultured and ready on the microplate, the media was removed from all the wells and discarded. […] Removed the plate cover and measured the absorbance of the wells, including the blanks at 570 nm. • 8. Determined the average values from triplicate readings after subtracting the average value for the blanks.
(§3) HGEPp cells were exposed to different concentrations of H2O2 for 4 h to examine H2O2-induced oxidative stress. The cells were exposed to 0-0.6 mM H2O2 for 4 h and cell viability was evaluated using the TACS MTT Cell Proliferation Assay Kit. The percentage of cell survival was determined using the ratio of the optical density (OD) of the test sample to the OD of the control×100%. […]

[4] = tested on: reactive oxygen species within HGEPp cells; conditions: 0.3 mM H2O2 for 4 h
From the text: 2. measure the effect of recrystallized oltipraz and formulated oltipraz on hydroxyl, peroxyl and other reactive oxygen species within HGEPp cells, using Cell Biolabs' OxiSelect™ Intracellular ROS Assay Kit. This assay employs the cell-permeable fluorogenic probe 2′,7′-dichlorodihydrofluorescin diacetate (DCFH-DA) which diffuses into cells and is deacetylated by cellular esterases to a nonfluorescent DCFH which is then rapidly oxidized to highly fluorescent 2′,7′-dichlorodihydrofluorescein (DCF) by ROS.
Pooled primary HGEPps were propagated in CnT-Prime epithelial culture medium provided by CellnTec on 100 mm petri dishes coated with 30 mg/ml Type I rat tail collagen (BD Biosciences) diluted in Dulbecco's phosphate-buffered saline (DPBS). […] The cells were harvested when they reached 70-90% confluency as observed by light microscopy. For routine cultivation, the medium was changed every 3 days. […]
Prepared and mixed all reagents thoroughly before use. […] Once the HGEPp cells were cultured and ready on a microplate, the media was removed from all the wells and discarded. […] Fluorescence was read on a Fluorescence Plate Reader after 1 hour. […] Transferred 150 μL of the mixture to a fresh 24-well plate for fluorescence measurements at 530 nm. […]
Intracellular ROS was measured using a Spectramax M3 microplate reader.

[5] = tested on: primary human gingival epithelial cells (HGEPp); assay: cells; conditions: Epithelial cell, 4 h, read-out: IC50 of H2O2 in HGEPp cells
Protocol: as §1, §2, §3

SMILES	Percent of Animals with Ulceration (Score ≥ 3) ([1]; Day 6)	Percent of Animals with Ulceration (Score ≥ 3) ([1]; Day 8)	Percent of Animals with Ulceration (Score ≥ 3) ([1]; Day 10)	Percent of Animals with Ulceration (Score ≥ 3) ([1]; Day 12)	Percent of Animals with Ulceration (Score ≥ 3) ([1]; Day 14)	Percent of Animals with Ulceration (Score ≥ 3) ([1]; Day 16)	Percent of Animals with Ulceration (Score ≥ 3) ([1]; Day 18)	Percent of Animals with Ulceration (Score ≥ 3) ([1]; Day 20)	Percent of Animals with Ulceration (Score ≥ 3) ([1]; Day 22)	Percent of Animals with Ulceration (Score ≥ 3) ([1]; Day 24)	Percent of Animals with Ulceration (Score ≥ 3) ([1]; Day 26)	Percent of Animals with Ulceration (Score ≥ 3) ([1]; Day 28)	mean daily percent body weight change (rate of weight gain) [2]	effect on H2O2-induced decrease in HGEPp survival (MTT) [3]	ROS levels compared to normal control cells (100%) [4]	IC50 [5]
Cc1c(-c2cnccn2)ssc1=S [Neat oltipraz, 4-methyl-5-(pyrazin-2-yl)-3H-1,2-dithiole-3-thione]	0.0%	0.0%	0.0 z Percent	50.0 y Percent	100.0%	100.0%	100.0%	100.0%	100.0%	50.0 z Percent	25.0 z Percent	25.0 z Percent	gained weight at a slower rate than those administered placebo	promoted cell proliferation and reduced H2O2-induced decrease in HGEPp survival		
OO [Sample H2O2, hydrogen peroxide]															128%	300 µM
